According to article PMC10880909, “Correction: A high-throughput effector screen identifies a novel small molecule scaffold for inhibition of ten-eleven translocation dioxygenase 2” (RSC Medicinal Chemistry, 2024):

Target: hTET2 (Homo sapiens, UniProt Q6N021)
Assay: MALDI-based inhibition assay of hTET2
Settings: for hTET2 inhibition, result in words: additional SAR / re-synthesis

IC50	SMILES	hTET2 inhibition, result in words
> 200 µM	CC(C)OS(=O)(=O)c1ccc(F)c2ncc(I)cc12 [Compound 5]	
> 200 µM	CCCCCOS(=O)(=O)c1ccc(F)c2ncc(I)cc12 [Compound 6]	
> 200 µM	O=S(=O)(c1ccc(F)c2ncc(I)cc12)N1CCCC1 [Compound 10]	
> 200 µM	O=S(=O)(NCc1ccccc1)c1ccc(F)c2ncc(I)cc12 [Compound 13]	
> 200 µM	O=S(=O)(NCCc1ccccc1)c1ccc(F)c2ncc(I)cc12 [Compound 14]	
> 200 µM	O=S(=O)(Nc1cccc(O)c1)c1ccc(F)c2ncc(I)cc12 [Compound 16]	

Further lines, the compound ahead of its results:

SMILES	IC50	hTET2 inhibition, result in words
NS(=O)(=O)c1ccc(F)c2ncc(I)cc12 [Compound 8]	> 200 µM	
CNS(=O)(=O)c1ccc(F)c2ncc(I)cc12 [Compound 9]	> 200 µM	
O=S(=O)(Nc1ccccc1)c1ccc(F)c2ncc(I)cc12 [Compound 11]	> 200 µM	
O=S(=O)(O)c1ccc(O)c2ncccc12 [Compound 18]	12.1 ± 4.2 µM	
O=C(O)c1ccc(F)c2ncccc12 [Compound 19]	> 200 µM	inactivity
Oc1cc2c(cc1O)CNCC2 [Compound 21, tetrahydroisoquinoline-6,7-diol]	8.6 µM	micromolar IC50 values
O=C(O)c1ncccc1O [Compound 22, 3-hydroxypicolinic acid]	48.6 µM	micromolar IC50 values
